{"source": "patent US10351500B2", "about": "“Method of using of dihydro-resveratrol or its stilbenoid derivatives and/or chemical variants as antimicrobial agents” (Hong Kong Baptist University, priority 2015, dated 2019)", "key": {"[1]": {"experiment": "ABTS radical decolorization assay (antioxidant capacity)", "type": "biochemical", "conditions": "15 min, 734 nm"}, "[2]": {"tested_on": "cerulein-induced acute pancreatitis and associated pulmonary injury", "experiment": "cerulein-induced acute pancreatitis in rats, oral dihydro-resveratrol", "type": "in vivo, Sprague-Dawley rats", "from_the_text": "Among the several established animal models, repetitive intraperitoneal (i.p.) injection of cholecystokinin secretagogue, cerulein, is the most widely used and a highly reproducible method for the production of an experimental acute pancreatitis. Followed by a single shot of lipopolysaccharide (LPS), pulmonary injury characterized by neutrophil sequestration in the lung tissues and increased permeability of the alveolar membrane barrier is often observed as an acute pancreatitis associated complication. For the diagnosis of the onset of acute pancreatitis, bulky leakage of digestive enzymes, namely α-amylase, into the bloodstream is regarded as the principal pathological parameter. For evaluating the severity of acute pancreatitis and the associated pulmonary injury, morphological alterations of organ architecture including interstitial edema, cellular damage, leukocyte infiltration and hemorrhage are characterized as the histological and/or pathological parameters. Besides histological examination, aberrant MPO activity is often measured for assessing the severity of neutrophil-mediated inflammatory condition. Both the local and systemic inflammatory responses can be further confirmed by the high levels of pro-inflammatory cytokines present in the homogenates of affected tissues. Moreover, glutathione depletion, a defense mechanism, is one of the most common parameters for assessing the severity of tissue injury.\nEvaluation of biological activities. Sprague-Dawley rats aged 28 days weighing in the range of 70 to 90 g were randomly assigned into 6 groups of 6 to 8 individuals. The rats were housed with an ambient temperature of 23±2° C., a relative humidity of 60 to 80% and a 12-h light/dark cycle. Prior to the experiment, the rats were starved overnight but allowed with free access to water. Experimental acute pancreatitis was induced in the rats by six hourly i.p. injections of cerulein at the supramaximally stimulating dose (50 μg/kg) followed by a single dose of LPS at 7.5 mg/kg 1 h after the last cerulein injection, and this group of rats was designated as the cerulein group. The control group received injections of 0.9% saline instead of cerulein in the same volume and at same time intervals. The treatment groups given with cerulein and oral doses of dihydro-resveratrol (10, 20 or 50 mg/kg) were designated as Cerulein+D-res 10 or 20 or 50 mg/kg. The therapeutic intervention was given 30 minutes after the first cerulein injection for three consecutive hours. Upon scarification, pancreata were immediately removed, weighed, trimmed from fat and fixed in 4% paraformaldehyde-phosphate buffered saline overnight at 4° C. Samples were then processed, embedded in paraffin wax, sectioned and subjected to H&E staining. Levels of TNF-α in pancreatic and pulmonary samples were determined using commercial ELISA kits. Tissue homogenates were subjected to biochemical assays for the evaluation of MPO activity and glutathione content."}, "[3]": {"tested_on": "Trichophyton mentagrophytes", "experiment": "anti-fungal growth inhibition, T. mentagrophytes", "type": "cell-based", "conditions": "Trichophyton mentagrophytes, 168 h", "experimental": "Evaluation of anti-fungal activity. In a single well of the 96-well microplate, 10 μL of the testing compound is added into 190 μL of growth medium (Difco™ YM) containing an overnight culture of Trichophyton rubrum or Trichophyton mentagrophytes at a density of approximately 5×10^5 CFU. The testing compounds include dihydro-resveratrol and DR1 to DR11. Wells incubated with 10 μL 0.5% DMSO only (i.e. no testing compound) are served as the experimental control of fungal growth whilst those incubated with growth medium only (i.e. no fungi) are served as the negative control. […] The percentage of growth inhibition of T. mentagrophytes by the different concentrations of testing compounds is shown in Table 10 whilst the percentage of growth inhibition of T. rubrum is shown in Table 11. The images of T. mentagrophytes culture are captured post treatment of dihydro-resveratrol (100 μM) and DR8 (100 μM) when compared to the growth of experimental control and negative control (FIG. 30)."}, "pancreatic acinar cells": {"tested_on": "pancreatic acinar cells", "type": "cell-based", "conditions": "rat, 24 h", "experimental": "Functional intact acini were dissociated from pancreatic tissue using collagenase digestion with mild shearing forces. Acini were cultured in Dulbecco's modification of Eagle's medium (GIBCO) supplemented with 5% fetal bovine serum (GIBCO), 1% penicillin-streptomycin (GIBCO) in a 5% CO2, 95% air humidified atmosphere at 37° C. […] MTT reagent was added to the cells at the end of the 24-hour treatment period. After a 3-hour reaction time, MTT products were dissolved in DMSO and absorbance at 570 nm was taken."}, "[4]": {"tested_on": "cerulein-induced chronic pancreatitis", "experiment": "cerulein-induced chronic pancreatitis in mice, oral treatment", "type": "in vivo, C57/BL6 mice", "experimental": "Evaluation of biological activities. C57/BL6 mice aged 28 days weighing in the range of 20 to 25 g were randomly assigned into 4 groups of 6 to 8 individuals. The mice were housed with an ambient temperature of 23±2° C., a relative humidity of 60 to 80% and a 12-h light/dark cycle. Prior to the glucose tolerance test, the mice were starved overnight but allowed with free access to water. Experimental chronic pancreatitis was induced in the mice by four hourly i.p. injections of cerulein at the supramaximally stimulating dose (50 μg/kg) a day, 3 days a week, in a total of 6 weeks. The control group received injections of 0.9% saline instead of cerulein in the same volume and at same time intervals. The treatment groups given with cerulein and oral doses of dihydro-resveratrol (20 mg/kg/day) were designated as Cer+D-res. […] Thus, it concludes that an effective dosage of dihydro-resveratrol is at least 20 mg/kg/day. […] At the end of the 6-week experiment, mice were subjected to the intraperitoneal glucose tolerance test (IPGTT). Mice had been starved for 14 hours prior to the IPGTT, in which a 15% (w/v) glucose solution was injected to individual animals at 1.5 g glucose per kg body weight. About 1 μL of blood will be obtained from the tail vein, and blood glucose levels were monitored 30 min before (i.e. fasting level) and 10, 20, 30 and 60 min after glucose injection using a glucometer (Medisign, Korea). Upon scarification, pancreases were immediately removed, weighed, trimmed from fat and fixed in 4% paraformaldehyde-phosphate buffered saline overnight at 4° C. Samples were then processed, embedded in paraffin wax, sectioned and subjected to immunostaining."}, "[5]": {"tested_on": "PANC-1 human pancreatic ductal adenocarcinoma cells", "experiment": "cell migration assay, PANC-1", "type": "cell-based", "conditions": "PANC-1, 25 μM, 24-h treatment"}}, "data": [{"smiles": "Oc1ccc(CCc2cc(O)cc(O)c2)cc1", "note": "[Dihydro-resveratrol, trans-3,5,4′-trihydroxybibenzyl]", "values": [{"measurement": "Trolox equivalent (mg), antioxidant capacity", "setting": "[1]", "result": 4969.611, "unit": "mg"}, {"measurement": "Plasma α-amylase activities (mean)", "setting": "[2]; Cerulein + D-Res 10 mg (oral 10 mg/kg)", "result": 0.2891, "unit": "U/μl/minute"}, {"measurement": "Plasma α-amylase activities (mean)", "setting": "[2]; Cerulein + D-Res 20 mg (oral 20 mg/kg), #p<0.05 vs cerulein group", "result": "0.2498# U/μl/minute"}, {"measurement": "Plasma α-amylase activities (mean)", "setting": "[2]; Cerulein + D-Res 50 mg (oral 50 mg/kg), #p<0.05 vs cerulein group", "result": "0.2431# U/μl/minute"}, {"measurement": "MPO activities in pancreatic and pulmonary tissues", "setting": "[2]; oral", "result": "significantly reduced"}, {"measurement": "ameliorative effect on reducing pancreatic edema compared with trans-resveratrol", "setting": "[2]; oral", "result": "more promising than that of trans-resveratrol"}, {"measurement": "glutathione level in cerulein-induced pancreata", "setting": "[2]; oral", "result": "significantly suppressed glutathione depletion"}, {"measurement": "levels of TNF-α in pancreatic and pulmonary tissues", "setting": "[2]; oral, ELISA", "result": "significantly reduced"}, {"measurement": "focal expansion of interlobular septae, cytoplasmic shrinkage and leukocyte infiltration in pancreatic parenchyma", "setting": "[2]; oral, H&E", "result": "remarkably reduced"}, {"measurement": "pulmonary wall thickening and hemorrhage in lung tissues", "setting": "[2]; oral, H&E", "result": "significantly improved"}, {"measurement": "pancreatic edema (weight ratio of pancreas to body)", "setting": "[2]; oral, not less than 20 mg/kg", "result": "notably reduced the pancreatic edema"}, {"measurement": "inhibition at 25 µM", "setting": "[3]; read-out: Inhibition rate (25 μM)", "result": 4.52, "unit": "%"}, {"measurement": "inhibition at 50 µM", "setting": "[3]; read-out: Inhibition rate (50 μM)", "result": 15.3, "unit": "%"}, {"measurement": "inhibition at 100 µM", "setting": "[3]; read-out: Inhibition rate (100 μM)", "result": 30.8, "unit": "%"}, {"measurement": "cytotoxicity (MTT, mitochondrial metabolic rates)", "setting": "pancreatic acinar cells", "result": "approximately 500 μM"}, {"measurement": "fibrosis formation, 50 mg/kg/day versus 20 mg/kg/day", "setting": "[4]", "result": "no statistically significant difference"}, {"measurement": "pancreatic beta-cell area (insulin immunofluorescence)", "setting": "[4]; 20 mg/kg/day oral", "result": "restoration of beta-cell area"}, {"measurement": "FN1 deposition in pancreatic parenchyma", "setting": "[4]; 20 mg/kg/day oral, 3 weeks", "result": "reduces such deposition"}, {"measurement": "impaired glucose tolerance (IPGTT)", "setting": "[4]; 20 mg/kg/day oral, 3 weeks", "result": "significantly rectified"}, {"measurement": "adverse effect", "setting": "[4]; 50 mg/kg/day", "result": "no adverse effect"}, {"measurement": "migratory ability", "setting": "[5]", "result": "significant reduction in the migratory ability"}]}]}
